Test results as given in patent US8685976B2, “Cell adhesion promoting agent and method of promoting cell adhesion” (Kyoto University, priority 2008, dated 2014).
Entries after “also recorded” stand apart in the source; their conditions may differ. Read-outs that look alike come from different tables or passages of the source.

Legend:
[1] = system: adhesamine (6 μM)-induced cell attachment of Jurkat cells; assay: Squelching assay; assay type: cell-based, human; conditions: for IC50: adhesamine 6 μM, Jurkat cells
Experimental: Adhesamine (1: 0.6 nmol) and each glycosaminoglycan (GAG) (heparin, heparan sulfate, chondroitin sulfate, keratan sulfate, hyaluronic acid, and heparin oligosaccharides) ranging from 0.006 to 12 nmol were stirred in 10 μL of 50 mM phosphate buffer (pH 6.0) containing 100 mM NaCl and 1% DMSO with a vortex mixer at room temperature for 30 min. Thereafter, these mixtures were transferred to 96-well plates, and 90 μL of Jurkat cell suspension (1×10^5 cells/mL) was added to each well. After 5-hour incubation at 37° C., non-adherent cells were removed by washing each well with PBS twice, and the attached cells were counted with a Neubauer counting chamber (Digital Bio). To calculate the inhibition rates, the number of attached cells in the wells supplied only with 1% DMSO or GAG of each concentration was subtracted from the number of cells in which the cell adhesions were observed after addition of the samples. The inhibition rate is expressed as follows.
wherein AC+(−)GAGs, +(−)adhesamine expresses the number of adhered cells in the presence (absence) of GAGs and adhesamine.
IC50 values are defined as the concentrations of GAGs required for 50% inhibition of the adhesamine (6 μM)-induced cell attachment. The results of the squelching assays were plotted as percentage of inhibition vs. log (GAG), and IC50 values were determined from curve fits of multiple independent experiments.

Jurkat cells [2] = assay: Cytoskeletal disruption, cell adhesion; assay type: cell-based, human; conditions: for effect on adhesamine-mediated cell adhesion: adhesamine 6 μM, cytochalasin B 0-100 μM or nocodazole 0-0.5 μM; for effect on fibronectin-mediated cell adhesion: fibronectin-coated plate; for effect on cell attachment induced by poly-L-lysine: poly-L-lysine-coated plate
Experimental: Jurkat cells were adhered to plastic plates by adding adhesamine thereto in the presence of nocodazole (a tubulin inhibitor) or cytochalasin B (an actin inhibitor). Both nocodazole and cytochalasin inhibited adhesamine-induced cell adhesion, as observed in the cells adhered to a fibronectin-coated plate. […] The concentration of adhesamine was 6 μM. The fibronectin- or poly-L-lysine-coated plates were prepared by pretreating wells of 96-well plates with fibronectin or poly-L-lysine (1 ng/well).
Jurkat cells (5×10^4) were cultured in 100 μL of RPMI, and incubated with cytochalasin B (0-100 μM) or nocodazole (0-0.5 μM) at 37° C. The treated cells were then assayed for their responses to adhesamine (6 μM). Their responses to fibronectin- or poly-L-lysine-coated plates were also evaluated. The coated plates were prepared by pretreating wells of 96-well plates with fibronectin or poly-L-lysine (1 ng/well).

Jurkat cells [3] = assay: Microinjection of Alexa Fluor 594; assay type: cell-based, human; conditions: 5 μg/mL reagent
Experimental: The concentration of the reagents used was 5 μg/mL.
The solutions of adhesamine (1), Type I collagen, poly-L-lysine hydrochloride, and fibronectin were prepared by diluting with PBS containing 1% (v/v) DMSO. 10 μL of each solution (1 mg/mL) was added to glass bottom culture dishes (35 mm uncoated dish). 2 mL of cell suspension in a culture medium was added to each well at a density of 2×10^5 cells/mL. After 14-hour incubation at 37° C., Alexa Fluor 594 (Molecular Probes, USA) at a concentration of 5 mg/mL was injected into Jurkat cells by using a CI-2000 automated cell injection system (Fujitsu, Japan). Success rates of the microinjection were evaluated by direct observation of the fluorescent cells through a fluorescent-microscopic window of the injection system. The data shown are means±SD for a minimum of three experiments. 20 cells were injected in each experiment.

Jurkat cells [4] = assay: Cell adhesion assay by addition, Jurkat cells; assay type: cell-based, human; conditions: Jurkat cells; for cell-adhesion promoting activity of adhesamine derivatives: FIG. 6
Experimental: 1 μL each of an aqueous solution of adhesamine (1), Type I collagen, poly-L-lysine hydrochloride, poly-L-ornithine hydrobromide, and fibronectin at a concentration of 50, 500, and 5000 μg/ml, was added to 96-well plate. 100 μL of HepG2 suspension (4×10^5 cells/mL) was added to each well. After 3-hour incubation at 37° C., non-adherent cells were removed by washing each well with PBS three times, and the attached cells were counted with a Neubauer counting chamber (Digital Bio). For Jurkat cells, 100 μL of cell suspension was added to each well at a density of 1×10^6 cells/ml. After 5-hour incubation at 37° C., non-adhered cells were removed by washing each well with PBS twice, and the attached cells were counted with a Neubauer counting chamber (Digital Bio). To calculate adhesion rates, firstly seeded cell numbers were assigned a value of 100%. As control tests, the same tests were conducted using wells supplied with only 1 μL of DMSO. Each assay was conducted in triplicate, and the means and standard derivations were calculated.
The comparison between adhesamine and its derivatives regarding cell adhesion promotion activity was conducted using Jurkat cells by way of reagent addition assay. 1 μL each of DMSO solutions of the compounds having concentrations of 60, 600, and 6000 μM were added to 96-well plates. The wells were supplied with 100 μL each of Jurkat cell suspensions (1×10^6 cells/mL). After 5-hour incubation at 37° C., non-adhered cells were removed by washing each well with PBS twice, and the attached cells were counted with a Neubauer counting chamber (Digital Bio). To calculate adhesion rates, firstly seeded cell numbers were assigned a value of 100%. As control tests, the same tests were conducted using well plates supplied with only 1 μL of DMSO. Each assay was conducted in triplicate, and the means and standard derivations were calculated.
However, since HepG2 cells have an intrinsic propensity to adhere to plastic tissue-culture plates, a test was conducted to determine whether the same effect was also obtained in the Jurkat cell line and human T-lymphocytes that are floating cells. Remarkably, 30% and 60% of the Jurkat cells attached to a culture plate in the presence of 6 and 60 μM of adhesamine, respectively (FIG. 1D). Removal of adhesamine by washing the plate twice with PBS detached the cells. 93% of Jurkat cells were released from the surface of a culture plate 24 hour after washing (FIG. 2). […] Simply adding adhesamine to the medium promoted adhesion of Jurkat cells onto culture plates, but not to each other.

HepG2 cells [5] = assay: Confocal imaging of fluorescent compounds; assay type: cell-based; conditions: for localization of the fluorescent compound: HepG2, 6 μM, 3 hours
Experimental: HepG2 cells were incubated with Compound 4 (6 μM, A and C) or Compound 5 (6 μM, B and D) for 3 hours after seeding.
(§1) In (A) and (B), Jurkat cells (A) or HepG2 cells (B) were pretreated with 0.02 units/mL of heparinase, heparitinase I, and heparitinase II, or 0.1 units/mL of protease-free chondroitinase ABC in a serum-free culture medium for 1 hour at 37° C. before evaluating cell adhesion. The treated cells were seeded onto adhesamine-added or fibronectin-coated plastic wells. The attached cells were counted at 5 hours after seeding. The concentrations of adhesamine and fibronectin were 6 μM and 5 μg/mL, respectively. Each point represents the means±SD. (C) and (D) show localization of Compound 4 in HepG2 cells treated with heparinase/heparitinase I/heparitinase II (C) or chondroitinase ABC (D).
HepG2 cell suspension (100 μL) were seeded on a 96-well plate (Greiner bio-one) at a density of 2×10^5 cells/mL, and the cells were incubated with Compounds 4 and 5 for 3 hours at 37° C., at a concentration of 6 μM. After incubation, medium exchange was performed, and the cells were then subjected to fluorescent microscopic observation. Microscopic images of the cells were captured by a Yokogawa CSU22 confocal fluorescence microscope with 405 nm laser excitation.

HepG2 cells [6] = assay: Enzymatic treatment of cells, cell adhesion, HepG2; assay type: cell-based; conditions: heparinases 0.02 units/mL, chondroitinase ABC 0.1 units/mL
Experimental: as §1
The effects of these GAG-degrading enzymes on the intact or adhesamine-enhanced attachment of HepG2 cells were examined. […] As observed in Jurkat cells, adhesamine-induced cell adhesion was canceled by heparan sulfate-degrading enzymes, but not by chondroitinase ABC (FIG. 9B).

Jurkat cells [7] = assay: Enzymatic treatment of cells, cell adhesion, Jurkat; assay type: cell-based, human; conditions: heparinases 0.02 units/mL, chondroitinase ABC 0.1 units/mL
Experimental: as §1
Jurkat cells (5×10^4) were cultured in 100 μL of RPMI and treated with a combination of heparinase, heparitinase I, and heparitinase II (0.02 units/mL) or chondroitinase ABC (0.1 units/mL) for 30 min at room temperature. The ability of the treated cells to respond to adhesamine was evaluated by counting the cells that were attached to plastic wells of a 96-well plate in the presence of adhesamine (6 μM).

[8] = system: focal adhesion kinase (FAK); assay: Western blotting, FAK activation; assay type: cell-based, human; conditions: Jurkat, adhesamine 6 μM, excess heparin or RGD peptide (100 μg/mL)
Experimental: (§2) Jurkat cells were treated with adhesamine (6 μM) in a serum-poor culture medium (0.1% FBS) for the indicated periods of time. The treated cell lysates were Western blotted with antibodies against FAK phospho-tyrosine^397 (pFAK), FAK, ERK1/2 phospho-threonine^202/tyrosine^204 (pERK) or ERK. In (B), Jurkat cells were incubated for 5 hours with varied concentrations of adhesamine or poly-L-lysine. The cell lysates were Western blotted with antibodies against FAK phospho-tyrosine^397 or FAK. […] The concentration of adhesamine (1) was 6 μM.
(§3) Jurkat cells were maintained in an RPMI medium containing 10% FBS. 5-6 million Jurkat cells were dispensed to a well of a 6-well plate in a final volume of 2 mL, and then incubated at 37° C. for 0-5 hours in the presence of adhesamine or poly-L-lysine. Non-adherent cells were removed and pelleted, and the remaining adherent cells were lysed in a 125 mM Tris-HCl buffer (pH 6.8) containing 4% SDS, 10% glycerol, 0.006% bromophenol blue, and 1.8% β-mercaptoethanol. The adherent cell homogenate was combined with pelleted nonadherent cells from the same well, and the combined sample was boiled for 5 minutes. The samples were separated by SDS-PAGE and electroblotted onto a nitrocellulose membrane. The membranes were blocked in 1% BSA and incubated with primary antibody, and then with horseradish peroxidase-conjugated secondary antibody. The blots were developed using the enhanced chemiluminescence technique.

[9] = system: extracellular signal-regulated kinase (ERK); assay: Western blotting, ERK activation; assay type: cell-based, human; conditions: Jurkat, excess amounts of heparin
Experimental: as §2
as §3, with “The blots were developed using the enhanced chemiluminescence technique.” left out

[10] = read-out: IC50 (GAGs, 50% inhibition of adhesamine-induced cell attachment)

In the case of Hyaluronic acid, the “ability to squelch the activity of adhesamine” value ([1]; GAG added to the medium together with adhesamine) is reported as “no detectable effect” and the IC50 [1, 10] is reported as > 120000 nM.
With `COC(=O)Nc1nc2ccc(C(=O)c3cccs3)cc2[nH]1` [nocodazole] the “effect on adhesamine-mediated cell adhesion” value (Jurkat cells [2]) was “inhibited”, the “effect on fibronectin-mediated cell adhesion” value (Jurkat cells [2]) was “impaired” and the “effect on cell attachment induced by poly-L-lysine” value (Jurkat cells [2]) was “no detectable effects; also recorded: hardly inhibited”.
In the case of “fibronectin: fibronectin from bovine plasma, plate-coating reagent”, the microinjection success rates (Jurkat cells [3]) is reported as “up to 30%”.
Heparan sulfate showed an IC50 [1, 10] of 790 nM.
In the case of `O=[N+]([O-])c1c(N2CC[N+]3(CC2)CC[N+]2(CCNCC2)CC3)ncnc1N1CC[N+]2(CC1)CC[N+]1(CCNCC1)CC2.[Cl-].[Cl-].[Cl-].[Cl-]` [Compound 7], the “Jurkat cell adhesion rate (%) in 6 μM of Adhesamine” value (from here on “Jurkat cell adhesion rate (%)”) (Jurkat cells [4]) is reported as 21 ± 1.3%.
In the case of `CN(C)c1cccc2c(S(=O)(=O)N3CC[N+]4(CC3)CC[N+]3(CCN(S(=O)(=O)c5cccc6c(N(C)C)cccc56)CC3)CC4)cccc12` [Compound 5], the “cell-adhesion promoting activity of adhesamine derivatives” value (shortened to “cell-adhesion promoting activity”) (Jurkat cells [4]) is reported as “little effect on cell adhesion” and the “localization of the fluorescent compound” value (HepG2 cells [5]) is reported as “no clear localization”.
With `C=C1[C@@H](C)[C@H]2[C@H](Cc3ccccc3)NC(=O)[C@]23OC(=O)/C=C/[C@H](O)CCC[C@@H](C)C/C=C/[C@H]3[C@@H]1O` [cytochalasin B] the “effect on adhesamine-mediated cell adhesion” value (Jurkat cells [2]) was “inhibited”, the “effect on fibronectin-mediated cell adhesion” value (Jurkat cells [2]) was “impaired” and the “effect on cell attachment induced by poly-L-lysine” value (Jurkat cells [2]) was “no detectable effects; also recorded: hardly inhibited”.
With `CSc1nc(Cl)c(C=O)c(N2CC[N+]3(CC2)CC[N+]2(CCN(c4ncnc(N5CC[N+]6(CC5)CC[N+]5(CCN(c7nc(SC)nc(Cl)c7C=O)CC5)CC6)c4[N+](=O)[O-])CC2)CC3)n1.[Cl-].[Cl-].[Cl-].[Cl-]` [Compound 8] the “Jurkat cell adhesion rate (%)” value (Jurkat cells [4]) was 28 ± 4.1%.
For `CSc1nc(Cl)c(C=NNS(=O)(=O)c2cccc3c(N(C)C)cccc23)c(N2CC[N+]3(CC2)CC[N+]2(CCN(c4nc(SC)nc(Cl)c4C=NNS(=O)(=O)c4cccc5c(N(C)C)cccc45)CC2)CC3)n1` [Compound 4], the “cell-adhesion promoting activity” value (Jurkat cells [4]) was “maintained the cell-adhesion promoting activity”, the “localization of the fluorescent compound” value (HepG2 cells [5]) was “on the cell surface” and the “localization of the fluorescent probe” value (HepG2 cells [5]; HepG2 cells treated with chondroitinase) was “no impact on the cell-surface localization”. For the same compound, the “localization of the fluorescent probe” value (HepG2 cells [5]; HepG2 cells treated with heparan sulfate-degrading enzymes) was “diffused from the cell surface”.
For `O=[N+]([O-])c1c(Cl)ncnc1N1CC[N+]2(CC1)CC[N+]1(CCN(c3ncnc(Cl)c3[N+](=O)[O-])CC1)CC2` [Compound 6], the “Jurkat cell adhesion rate (%)” value (Jurkat cells [4]) was 22 ± 3.2%.
For `CSc1nc(Cl)c(CO)c(N2CC[N+]3(CC2)CC[N+]2(CCN(c4nc(SC)nc(Cl)c4CO)CC2)CC3)n1` [Compound 3], the “cell-adhesion promoting activity” value (Jurkat cells [4]) was “no impact on activity”.
For `Clc1nc(Cl)nc(N2CC[N+]3(CC2)CC[N+]2(CCN(c4nc(Cl)nc(Cl)n4)CC2)CC3)n1` [Compound 9], the “Jurkat cell adhesion rate (%)” value (Jurkat cells [4]) was 35 ± 5.2%.
For `C1C[N+]2(CCN1)CC[N+]1(CCNCC1)CC2.[Br-].[Br-]` [Compound 2, 3,12-diaza-6,9-diazoniadispiro-(5,2,5,2)-hexadecane dibromide, reference compound], the “cell-adhesion promoting activity” value (Jurkat cells [4]) was “completely eliminated the activity”.
With chondroitinase ABC the “inhibition of intact attachment of HepG2 cells” value (HepG2 cells [6]) was 7% and the “effect on adhesamine-induced cell attachment” value (Jurkat cells [7]) was “no detectable effects”.
In the case of Keratan sulfate, the IC50 [1, 10] is reported as 1030 nM.
For Heparin [reference compound], the “effect on adhesamine-induced phosphorylation of FAK” value [8] was “reduced”, the IC50 [1, 10] was 270 nM and the IC50 ([1]; read-out: IC50 (heparin oligosaccharides, 50% inhibition of adhesamine-induced cell attachment)) was 270 ± 50 nM. For the same compound, the “effect on adhesamine-induced ERK activation” value [9] was “blocked”.
